Active and inactive are the calls of the source. The rule behind the calls is not given here.
Assays:
[1] = AUC (0 to t) in Sprague-Dawley rat at 20 mg/kg, IG measured upto 1440 mins by LC-MS/MS analysis; assay type: ADME, organism-based; conditions: in vivo, po
[2] = AUC (0 to infinity) in Sprague-Dawley rat at 20 mg/kg, IG measured upto 1440 mins by LC-MS/MS analysis; assay type: ADME, organism-based; conditions: in vivo, po
THP-M [3] = assay: Inhibition of NLRP3 and […] protein-protein interaction in human THP-M cells assessed as suppression activation of NLRP3 inflammasome by affecting ASC oligomerization at 10 to 50 uM pretreated for 24 hrs followed by stimulated with LPS for 3 hrs and ATP for 1 hr by co-IP analysis; assay type: cell-based; conditions: dose 10-50 µM, time 28.0 hrs
THP-M [4] = assay: Effect on transcription of NLRP3 in LPS-induced human THP-M cells assessed as NLRP3 mRNA expression at 10 to 50 uM pretreated for 24 hrs followed by stimulated with LPS for 4 hrs by qRT-PCR analysis; assay type: functional, cell-based; conditions: dose 10-50 µM, time 28.0 hrs
[5] = Tmax in Sprague-Dawley rat at 20 mg/kg, IG measured upto 1440 mins by LC-MS/MS analysis; assay type: ADME, organism-based; conditions: in vivo, po
Rattus norvegicus [6] = assay: (§1) Anti-inflammatory activity against complete Freund's adjuvant (CFA)-induced arthritis rat model assessed as decrease in spleen index at 20 to 80 mg/kg, ip treated after 17 days of CFA challenge measured after 18 days (day 17 to 34) relative to model group; assay type: functional, organism-based; conditions: dose 20-80 mg/kg, time 18.0 day
[7] = target: T1, NACHT, LRR and PYD domains-containing protein 1 (Homo sapiens) (UniProt Q9C000); assay: Inhibition of NLRP1 inflammasome in Val-boroPro-induced human THP-M cells assessed as inhibition of IL-1beta level at 20 to 60 uM pretreated for 24 hrs followed by stimulated with LPS by ELISA; assay type: cell-based; conditions: dose 20-60 µM
T1 sequence (whole entry): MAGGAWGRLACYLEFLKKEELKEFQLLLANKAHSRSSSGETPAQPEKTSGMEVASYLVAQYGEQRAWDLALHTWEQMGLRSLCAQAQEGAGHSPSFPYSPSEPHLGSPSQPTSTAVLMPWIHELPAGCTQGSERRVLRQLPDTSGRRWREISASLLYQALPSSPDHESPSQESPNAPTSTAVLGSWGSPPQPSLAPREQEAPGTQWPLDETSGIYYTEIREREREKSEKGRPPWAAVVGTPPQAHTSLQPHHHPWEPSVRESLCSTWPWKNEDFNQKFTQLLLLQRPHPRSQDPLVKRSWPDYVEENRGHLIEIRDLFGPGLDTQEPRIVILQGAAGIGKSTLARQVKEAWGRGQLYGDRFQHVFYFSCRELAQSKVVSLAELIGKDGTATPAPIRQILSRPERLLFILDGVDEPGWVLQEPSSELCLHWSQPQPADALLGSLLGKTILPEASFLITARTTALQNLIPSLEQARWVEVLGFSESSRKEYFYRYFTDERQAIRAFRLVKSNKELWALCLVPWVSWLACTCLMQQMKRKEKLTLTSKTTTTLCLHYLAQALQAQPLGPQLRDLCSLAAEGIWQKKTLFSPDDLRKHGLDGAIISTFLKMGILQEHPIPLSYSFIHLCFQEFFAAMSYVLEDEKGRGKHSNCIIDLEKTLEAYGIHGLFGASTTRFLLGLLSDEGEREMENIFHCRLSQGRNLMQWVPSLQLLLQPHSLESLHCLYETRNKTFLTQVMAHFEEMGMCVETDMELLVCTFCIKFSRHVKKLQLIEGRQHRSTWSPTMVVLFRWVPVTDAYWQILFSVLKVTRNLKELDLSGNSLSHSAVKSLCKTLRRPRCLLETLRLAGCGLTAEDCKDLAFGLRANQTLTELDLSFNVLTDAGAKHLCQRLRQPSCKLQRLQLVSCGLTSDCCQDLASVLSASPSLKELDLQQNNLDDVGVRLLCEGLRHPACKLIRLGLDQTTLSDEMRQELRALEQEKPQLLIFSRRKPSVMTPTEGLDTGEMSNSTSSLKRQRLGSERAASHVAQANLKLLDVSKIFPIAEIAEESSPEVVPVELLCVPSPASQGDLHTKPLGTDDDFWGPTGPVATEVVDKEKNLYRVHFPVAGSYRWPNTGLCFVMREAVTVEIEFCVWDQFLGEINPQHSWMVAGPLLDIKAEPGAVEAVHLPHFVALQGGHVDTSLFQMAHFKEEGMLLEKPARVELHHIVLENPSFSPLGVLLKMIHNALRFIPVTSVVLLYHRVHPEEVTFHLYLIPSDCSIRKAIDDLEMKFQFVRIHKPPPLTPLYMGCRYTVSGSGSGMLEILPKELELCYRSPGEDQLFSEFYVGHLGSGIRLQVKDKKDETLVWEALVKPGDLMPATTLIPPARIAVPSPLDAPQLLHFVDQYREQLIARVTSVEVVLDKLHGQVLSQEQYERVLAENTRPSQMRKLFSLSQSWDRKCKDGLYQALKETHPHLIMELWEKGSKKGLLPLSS

Rattus norvegicus [8] = assay: as §1, with “reduction” for “decrease”, “IL-1beta in rat synovium from the left rear ankle” for “spleen index”, “34) by immunofluorescence based assay” for “34)”; assay type: functional, organism-based; conditions: dose 20-80 mg/kg, time 18.0 day
THP-M [9] = assay: Induction of mitochondrial membrane potential loss in human THP-M cells pretreated for 24 hrs followed by stimulated with LPS for 3 hrs and ATP for 1 hr by Mitochondrial damage experiment; assay type: functional, cell-based; conditions: time 28.0 hrs
[10] = Bioavailability in Sprague-Dawley rat at 20 mg/kg, ip measured upto 720 mins by LC-MS/MS analysis; assay type: ADME, organism-based; conditions: in vivo

AUC(0-t) at 24 h [1]: 837 ng·h/mL
AUC(0-inf) [2]: 867 ng·h/mL
Tmax [5]: 16.7 min
inhibition [7]: inactive
bioavailability [10]: 11.5%
Structure (SMILES): COCCCNC(=O)c1ccc(Cn2c(SCC3CCCCC3)nc3ccncc32)cc1
inhibition (THP-M [3]): Dose-Dependent Effect
Activity (THP-M [4]): inactive
Activity (Rattus norvegicus [6]): Active
Activity (Rattus norvegicus [8]): Active
Activity (THP-M [9]): inactive

From ChEMBL document CHEMBL5500404, “Discovery and Development of NLRP3 Inhibitors Targeting the LRR Domain to Disrupt NLRP3-NEK7 Interaction for the Treatment of Rheumatoid Arthritis” (J Med Chem, 2024)
